Data taken from patent publication US9550796B2, “Pyrrolopyrrolone derivatives and their use as BET inhibitors” (NOVARTIS AG, priority 2013, dated 2017).

Assays:
BRD4 = BRD4 (Homo sapiens (Human), UniProt O60885); assay: TR-FRET in-vitro binding assay for BRD4; settings: 45 nM His-Brd4(44-477), acetyl-histone H4 (AcK 5, 8, 12, 16) peptide
Procedure, shortened: (§1)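 Incubation at 30° C lasted 35 min, followed by TR-FRET measurement; each compound was tested as 8 single-point concentrations.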

BRD2 = BRD2 (Homo sapiens (Human), UniProt P25440); assay: TR-FRET in-vitro binding assay for BRD2; settings: 45 nM His-Brd2(60-472), acetyl-histone H4 (AcK 5, 8, 12, 16) peptide
BRD2, sequence (P25440 60-472): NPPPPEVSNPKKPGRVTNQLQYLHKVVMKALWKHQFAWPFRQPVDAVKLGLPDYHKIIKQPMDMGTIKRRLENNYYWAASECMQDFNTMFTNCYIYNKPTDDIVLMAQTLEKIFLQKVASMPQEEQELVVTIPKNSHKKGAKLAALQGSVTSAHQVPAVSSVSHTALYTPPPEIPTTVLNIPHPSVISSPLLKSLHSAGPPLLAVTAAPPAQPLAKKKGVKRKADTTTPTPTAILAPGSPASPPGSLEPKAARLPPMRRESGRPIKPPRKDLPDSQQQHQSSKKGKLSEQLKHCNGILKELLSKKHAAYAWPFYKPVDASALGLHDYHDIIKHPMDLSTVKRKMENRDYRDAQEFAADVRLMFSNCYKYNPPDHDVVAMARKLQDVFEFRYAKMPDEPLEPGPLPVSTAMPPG
Procedure, shortened: as §1

BRD3 = BRD3 (Homo sapiens (Human), UniProt Q15059); assay: TR-FRET in-vitro binding assay for BRD3; settings: 45 nM His-Brd3(20-477), acetyl-histone H4 (AcK 5, 8, 12, 16) peptide
BRD3, sequence (Q15059 20-477): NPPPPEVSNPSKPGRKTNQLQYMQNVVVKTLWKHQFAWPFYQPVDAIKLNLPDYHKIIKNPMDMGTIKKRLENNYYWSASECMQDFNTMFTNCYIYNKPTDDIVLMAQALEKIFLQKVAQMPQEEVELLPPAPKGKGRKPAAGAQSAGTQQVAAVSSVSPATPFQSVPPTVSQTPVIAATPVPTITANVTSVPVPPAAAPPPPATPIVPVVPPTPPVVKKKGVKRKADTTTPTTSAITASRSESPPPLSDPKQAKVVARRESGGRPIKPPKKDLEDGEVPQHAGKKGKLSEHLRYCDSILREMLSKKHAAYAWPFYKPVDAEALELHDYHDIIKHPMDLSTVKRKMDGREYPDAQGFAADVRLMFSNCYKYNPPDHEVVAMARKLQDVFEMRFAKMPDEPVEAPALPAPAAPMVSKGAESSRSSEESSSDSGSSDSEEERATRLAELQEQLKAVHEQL
Procedure, shortened: as §1

MV-4-11 = assay: Cell growth inhibition assay (CellTiter-Glo), MV-4-11; type: cell-based, human; settings: MV-4-11 cells, 4 days; for GI50: Homo sapiens, MV4-11, 96 h, half-maximal growth inhibition; for MV-4-11 TGI: total growth inhibition
Procedure, shortened: (§2)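 Proliferation and viability are quantified by CellTiter-Glo after four days of incubation with serially diluted compound (maximum 10 μM). Four-parameter curve fitting gives IC50 and TGI.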

THP-1 = assay: Cell growth inhibition assay (CellTiter-Glo), THP-1; type: cell-based, human; settings: THP-1 cells, 4 days; for GI50: Homo sapiens, 96 h, half-maximal growth inhibition; for THP-1 TGI: total growth inhibition
Procedure, shortened: as §2

K-562 = assay: Cell growth inhibition assay (CellTiter-Glo), K-562; type: cell-based, human; settings: K-562 cells, 4 days; for GI50: Homo sapiens, K562, 96 h, half-maximal growth inhibition; for K-562 TGI: total growth inhibition
Procedure, shortened: as §2

BRD4-NUT-fusion = BRD4-NUT-fusion (Homo sapiens, UniProt O60885); assay: Nut-foci formation assay in HCC2494 NUT midline carcinoma cells; type: cell-based; settings: 24 hours, nuclear BRD4-NUT foci by immunofluorescence microscopy, read-out: HCS Brd4-NUT IC50
Procedure: Nut-Foci Formation Assay […] Compound-mediated inhibition of BRD4 activity can be monitored by quantification of the number and intensity of nuclear BRD4-NUT foci using automated immunofluorescence microscopy. Briefly, 5000 cells in 20 μL fresh medium are seeded into Poly-D-Lysine-precoated 384-well plates and incubated overnight at 37° C. and 5% CO2, followed by addition of 5 μl medium containing compound dilutions at 5-fold their final intended concentration. […] Assay plates can be imaged using the appropriate filter sets on the Cellomics VTi automated fluorescence microscopy platform (ThermoFisher Scientific) and the population average of the number of NUT-foci per nucleus is quantified using the Cellomics Spot Detection BioApplication image analysis algorithm (ThermoFisher Scientific). […] Compound concentrations leading to half-maximal (IC50) inhibition of the aforementioned readout parameters are determined using standard four parameter curve fitting.

Row | SMILES | IC50 (BRD4) | IC50 (BRD2) | IC50 (BRD3) | GI50 (MV-4-11) | MV-4-11 TGI (MV-4-11) | GI50 (THP-1) | THP-1 TGI (THP-1) | GI50 (K-562) | K-562 TGI (K-562) | IC50 (BRD4-NUT-fusion)
1 | Cc1cn(C)c2c1C(=O)N(c1cc(C)c3nnc(C)n3c1)C2c1ccc(Cl)cc1 (centres unmarked) [Example 33, 6-(4-chlorophenyl)-5-(3,8-dimethyl-[1,2,4]triazolo[4,3-a]pyridin-6-yl)-1,3-di methyl-5,6-dihydropyrrolo[3,4-b]pyrrol-4(1H)-one] | 31 nM | 36 nM | 35 nM | 7.71 nM | 20.05 nM | 17.4 nM | 35.6 nM | 97.4 nM | >10000 nM | 9.55 nM
2 | Cc1cn(C)c2c1C(=O)N(c1cc(C)c(=O)n(C)c1)C2c1ccc(Cl)cc1 (centres unmarked) [Example 34, 6-(4-chlorophenyl)-5-(1,5-dimethyl-6-oxo-1,6-dihydropyridin-3-yl)-1,3-dimethyl-5,6-dihydropyrrolo[3,4-b]pyrrol-4(1H)-one] | 43 nM | 37 nM | 32 nM | 19.4 nM | 48.3 nM | 43.8 nM | 99.4 nM | 241 nM | >10000 nM | 26.8 nM
3 | COc1ncc(-c2cc3c(n2C)C(c2ccc(Cl)cc2)N(c2cc(Cl)c(=O)n(C)c2)C3=O)c(OC)n1 (centres unmarked) [Example 38, 5-(5-chloro-1-methyl-6-oxo-1,6-dihydropyridin-3-yl)-6-(4-chlorophenyl)-2-(2,4-dimethoxypyrimidin-5-yl)-1-methyl-5,6-dihydropyrrolo[3,4-b]pyrrol-4(1H)-one] | 47 nM | 322 nM | 59 nM | 29.4 nM | 51.5 nM | 37.5 nM | 72.7 nM | 154 nM | >10000 nM | 72.5 nM
4 | Cn1c(-c2ccc(=O)n(C)c2)cc2c1C(c1ccc(Cl)cc1)N(c1cc(Cl)c(=O)n(C)c1)C2=O (centres unmarked) [Example 42, 5-(5-chloro-1-methyl-6-oxo-1,6-dihydropyridin-3-yl)-6-(4-chlorophenyl)-1-methyl-2-(1-methyl-6-oxo-1,6-dihydropyridin-3-yl)-5,6-dihydropyrrolo[3,4-b]pyrrol-4(1H)-one] | 270 nM |  | 53 nM | 227 nM | 348 nM | 811 nM | 1470 nM | 3190 nM | >10000 nM | 4970 nM
5 | Cc1cc(N2C(=O)c3cc(-c4ccn(C)c(=O)c4)n(C)c3C2c2ccc(Cl)cc2)cn(C)c1=O (centres unmarked) [Example 45, 6-(4-chlorophenyl)-5-(1,5-dimethyl-6-oxo-1,6-dihydropyridin-3-yl)-1-methyl-2-(1-methyl-2-oxo-1,2-dihydropyridin-4-yl)-5,6-dihydropyrrolo[3,4-b]pyrrol-4(1H)-one] | 24.5 nM | 22 nM | 18.5 nM | 55.9 nM | 96.7 nM | 109 nM | 213 nM | 345 nM | >10000 nM | 97.3 nM
6 | COc1ncc(-c2cc3c(n2C)[C@@H](c2ccc(Cl)cc2)N(c2cc(C)c(=O)n(C)c2)C3=O)c(OC)n1 [Example 54, (R)-6-(4-chlorophenyl)-2-(2,4-dimethoxypyrimidin-5-yl)-5-(1,5-dimethyl-6-oxo-1,6-dihydropyridin-3-yl)-1-methyl-5,6-dihydropyrrolo[3,4-b]pyrrol-4(1H)-one] | 45 nM | 27 nM | 28 nM | 8.9 nM | 18 nM | 23.3 nM | 41.5 nM | 48.3 nM | >10000 nM | 26.7 nM
7 | COc1ncc(-c2cc3c(n2C)[C@@H](c2ccc(Cl)cc2)N(c2cc(C)c(=O)n(C)c2)C3=O)cn1 [Example 56, (R)-6-(4-chlorophenyl)-5-(1,5-dimethyl-6-oxo-1,6-dihydropyridin-3-yl)-2-(2-methoxypyrimidin-5-yl)-1-methyl-5,6-dihydropyrrolo[3,4-b]pyrrol-4(1H)-one] | 28.3 nM | 30 nM | 22 nM | 24.8 nM | 44.5 nM | 30.3 nM | 50.7 nM | 103 nM | >10000 nM | 39.1 nM
8 | Cc1cc2c(n1C)[C@@H](c1ccc(Cl)cc1)N(c1cc(Cl)c(=O)n(C)c1)C2=O [Example 75, (R)-5-(5-chloro-1-methyl-6-oxo-1,6-dihydropyridin-3-yl)-6-(4-chlorophenyl)-1,2-dimethyl-5,6-dihydropyrrolo[3,4-b]pyrrol-4(1H)-one] | 85.3 nM | 135 nM | 53.3 nM | 54.8 nM | 102 nM | 74.3 nM | 167 nM | 289 nM | >10000 nM | 11.2 nM
9 | Cn1ccc2c1[C@@H](c1ccc(Cl)cc1)N(c1cc(Cl)c(=O)n(C)c1)C2=O [Example 77, (R)-5-(5-chloro-1-methyl-6-oxo-1,6-dihydropyridin-3-yl)-6-(4-chlorophenyl)-1-methyl-5,6-dihydropyrrolo[3,4-b]pyrrol-4(1H)-one] | 109 nM | 198 nM | 94.5 nM | 57.6 nM | 96.3 nM | 88.9 nM | 146 nM | 342 nM | >10000 nM | 10.1 nM
